We go through nine molecules from patent US20230278972A1, “SUBSTITUTED HALOALKYL SULFONANILIDE HERBICIDES” (FMC Corporation, priority 2020, published 2023).

Where two headings read alike, the source gives them in different places.

Format in all cases: in vivo
Assay [1] deals with pigweed (Amaranthus retroflexus). In words: Test A postemergence, pigweed. The conditions noted are these: Amaranthus retroflexus, post-emergence, 240 h, Postemergence, 0 to 100 scale (0 no effect, 100 complete control); for pest or weed control at 125 g/ha: 125 g ai/ha; for pest or weed control at 500 g/ha: 500 g ai/ha. In a few lines: (§1)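 Preemergence: seeded pots of loam plus sand received a directed soil spray. Postemergence: seedlings at one to two leaves, 2 to 10 cm high, were oversprayed. Each compound was formulated in a non-phytotoxic solvent mix that included a surfactant.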

Assay [2] has as its system barnyardgrass (Echinochloa crus-galli). Put plainly: Test A preemergence, barnyardgrass. Particulars: Echinochloa crus-galli, pre-emergence, 240 h, Preemergence; for pest or weed control at 125 g/ha: 125 g ai/ha; for pest or weed control at 500 g/ha: 500 g ai/ha. In a few lines: as §1
Assay [3] has as its system Ryegrass, Italian (Italian ryegrass, Lolium multiflorum). Put plainly: Test A postemergence, Ryegrass, Italian. The conditions noted are these: Lolium multiflorum, post-emergence, 240 h, Postemergence, 0 to 100 scale (0 no effect, 100 complete control); for pest or weed control at 125 g/ha: 125 g ai/ha; for pest or weed control at 500 g/ha: 500 g ai/ha. The method, boiled down: as §1

Assay [4] relates to ragweed (common ragweed, Ambrosia artemisiifolia). Put plainly: Test A preemergence, ragweed. Particulars: Ambrosia artemisiifolia, pre-emergence, 240 h, Preemergence; for pest or weed control at 125 g/ha: 125 g ai/ha; for pest or weed control at 500 g/ha: 500 g ai/ha. The method, boiled down:
as §1

[5] abbreviates: visual injury approx. 10 days, read-out: Plant response rating, Pigweed.
Where [6] appears, read: visual injury vs untreated controls after approx. 10 days, read-out: Pigweed plant response rating.
[7] abbreviates: visual injury on 0 to 100 scale (0 no effect, 100 complete control), approximately 10 days, read-out: Barnyardgrass plant response rating.
[8] abbreviates: 0 to 100 scale (0 no effect, 100 complete control), read-out: Plant response rating, Barnyardgrass.
Where [9] appears, read: visual injury approx. 10 days, read-out: Plant response rating, Ryegrass, Italian.
[10] abbreviates: visual injury vs untreated controls after approx. 10 days, read-out: Ryegrass, Italian plant response rating.
Setting [11] is: visual injury on 0 to 100 scale (0 no effect, 100 complete control), approximately 10 days, read-out: Ragweed plant response rating.
[12] abbreviates: 0 to 100 scale (0 no effect, 100 complete control), read-out: Plant response rating, Ragweed.
The mark [13] stands for this setting: read-out: Plant response rating, Pigweed.
Setting [14] is: read-out: Plant response rating, Ryegrass, Italian.
Where [15] appears, read: visual injury, 0 to 100 scale (0 no effect, 100 complete control), approx. 10 days, read-out: Plant response rating, Barnyardgrass.
The mark [16] stands for this setting: visual injury, 0 to 100 scale (0 no effect, 100 complete control), approx. 10 days, read-out: Plant response rating, Ragweed.

As to `Cc1cc(C)c(C2=NOC3COCCC23)cc1NS(=O)(=O)C(F)(F)F` (stereo not drawn) [Compound 121, N-[2,4-Dimethyl-5-(3a,4,7,7a-tetrahydro-5H-pyrano[4,3-d]isoxazol-3-yl)phenyl]-1,1,1-trifluoromethanesulfonamide], the pest or weed control at 125 g/ha in assay [1] (setting [5]) worked out at 70%; in assay [2] (setting [7]), 90%; in assay [3] (setting [9]), 90%; in assay [4] (setting [11]), 80%. Further, the pest or weed control at 500 g/ha in assay [1] (setting [6]) worked out at 90%; in assay [2] (setting [8]) it was 90%; in assay [3] (setting [10]) it was 80%; in assay [4] (setting [12]) it was 100%.

Consider `Cc1c(NS(=O)(=O)C(F)(F)F)cc(C(=O)N(C)C)c(C)c1F` [Compound 128, 3-Fluoro-N,N,2,4-tetramethyl-5-[[(trifluoromethyl)sulfonyl]amino]benzamide], for which the pest or weed control at 125 g/ha was determined as 60% in assay [1] (setting [5]), 100% in assay [2] (setting [7]), 80% in assay [3] (setting [9]) and 90% in assay [4] (setting [11]). Besides, the pest or weed control at 500 g/ha in assay [1] (setting [6]) amounted to 90%; in assay [2] (setting [8]), 100%; in assay [3] (setting [10]) it was 100%; in assay [4] (setting [12]), 90%.

On to `Cc1cc(C)c(N(COC(=O)C(C)(C)C)S(=O)(=O)C(F)(F)F)cc1C1=NOC2(CCCC2)C1` [Compound 140, [[2,4-Dimethyl-5-(1-oxa-2-azaspiro[4.4]non-2-en-3-yl)phenyl][(trifluoromethyl)sulfonyl]amino]methyl 2,2-dimethylpropanoate], for which the pest or weed control at 125 g/ha in assay [1] (setting [13]) was found to be 10%; in assay [2] (setting [7]), 40%; in assay [3] (setting [14]) it was 0%; in assay [4] (setting [11]), 30%. For the same molecule, the pest or weed control at 500 g/ha in assay [1] (setting [6]) turned out to be 80%; in assay [2] (setting [8]) it was 100%; in assay [3] (setting [10]), 20%; in assay [4] (setting [12]), 60%.

`Cc1cc(C)c(N(COC(=O)C(C)(C)C)S(=O)(=O)C(F)(F)F)cc1C1=NOC2(CCCCC2)C1` [Compound 159, [[2,4-Dimethyl-5-(1-oxa-2-azaspiro[4.5]dec-2-en-3-yl)phenyl][(trifluoromethyl)sulfonyl]amino]methyl 2,2-dimethylpropanoate]: the pest or weed control at 125 g/ha in assay [1] (setting [13]) was determined as 40%; in assay [2] (setting [7]) it was 40%; in assay [3] (setting [14]), 0%; in assay [4] (setting [11]) it was 80%. Further, the pest or weed control at 500 g/ha was determined as 70% in assay [1] (setting [6]), 60% in assay [2] (setting [8]), 0% in assay [3] (setting [10]) and 80% in assay [4] (setting [12]).

`Cc1c(NS(=O)(=O)C(F)(F)F)cc(C(=O)N2CCOCC2)c(C)c1F` [Compound 190, 1,1,1-Trifluoro-N-[3-fluoro-2,4-dimethyl-5-(4-morpholinylcarbonyl)phenyl]methanesulfonamide]: the pest or weed control at 125 g/ha in assay [1] (setting [13]) turned out to be 70%; in assay [2] (setting [15]) it was 90%; in assay [3] (setting [14]) it was 80%; in assay [4] (setting [16]), 70%. Besides, the pest or weed control at 500 g/ha came out at 100% in assay [1] (setting [6]), 100% in assay [2] (setting [8]), 90% in assay [3] (setting [10]) and 90% in assay [4] (setting [12]).

As to `Cc1cc(C)c(C2=NOC3(CCCCC3)C2)cc1NS(=O)(=O)C(F)(F)F` [Compound 197, N-[2,4-Dimethyl-5-(1-oxa-2-azaspiro[4.5]dec-2-en-3-yl)phenyl]-1,1,1-trifluoromethanesulfonamide], the pest or weed control at 125 g/ha is 60% in assay [1] (setting [13]), 90% in assay [2] (setting [15]), 50% in assay [3] (setting [14]) and 80% in assay [4] (setting [16]). Further, the pest or weed control at 500 g/ha was 90% in assay [1] (setting [6]), 100% in assay [2] (setting [8]), 60% in assay [3] (setting [10]) and 90% in assay [4] (setting [12]).

Take `Cc1cc(C)c(C2=NOC3(CCCC3)C2)cc1NS(=O)(=O)C(F)(F)F` [Compound 207, N-[2,4-Dimethyl-5-(1-oxa-2-azaspiro[4.4]non-2-en-3-yl)phenyl]-1,1,1-trifluoromethanesulfonamide]: the pest or weed control at 125 g/ha was determined as 50% in assay [1] (setting [13]), 90% in assay [2] (setting [15]), 40% in assay [3] (setting [14]) and 20% in assay [4] (setting [16]). Further, the pest or weed control at 500 g/ha in assay [1] (setting [6]) came to 70%; in assay [2] (setting [8]), 90%; in assay [3] (setting [10]), 90%; in assay [4] (setting [12]) it was 70%.

Turning to `Cc1cc(Cl)c(NS(=O)(=O)C(F)(F)F)cc1C(=O)N1CCC(F)(F)CC1` [Compound 229, N-[2-Chloro-5-[(4,4-difluoro-1-piperidinyl)carbonyl]-4-methylphenyl]-1,1,1-trifluoromethanesulfonamide], the pest or weed control at 125 g/ha came out at 80% in assay [1] (setting [13]), 70% in assay [2] (setting [15]), 30% in assay [3] (setting [14]) and 90% in assay [4] (setting [16]). Further, the pest or weed control at 500 g/ha worked out at 100% in assay [1] (setting [6]), 90% in assay [2] (setting [8]), 70% in assay [3] (setting [10]) and 100% in assay [4] (setting [11]).

As to `Cc1cc(C)c(C(=O)N2CCC(F)(F)CC2)cc1NS(=O)(=O)C(F)(F)F` [Compound 241, N-[5-[(4,4-Difluoro-1-piperidinyl)carbonyl]-2,4-dimethylphenyl]-1,1,1-trifluoromethanesulfonamide], the pest or weed control at 125 g/ha came out at 60% in assay [1] (setting [13]), 100% in assay [2] (setting [15]), 0% in assay [3] (setting [14]) and 70% in assay [4] (setting [16]). The pest or weed control at 500 g/ha in assay [1] (setting [5]) amounted to 80%; in assay [2] (setting [7]), 100%; in assay [3] (setting [9]), 70%; in assay [4] (setting [11]) it was 90%.
